Read-outs that look alike come from different tables or passages of the source.
Legend:
[1] = In situ rat brain perfusion (brain uptake Kin, extraction E, BBB PS); settings: for Log Pc: Pc in cm/s; for Log Po: Po in cm/s; for Log PoS: PoS in mL/s/g; for Pc / Po: S assumed 100 cm^2/g; for PcS: cerebral cortex, S = physiological saline, AB = artificial blood
[2] = rat in vivo measurements; cited from earlier work
[3] = for Brain Kin: calculated at brain blood flow […] and rat serum fu; for Extraction (unbound) / Brain vascular extraction (total): calculated at brain blood flow […]; for Extraction (unbound): free drug; for Brain vascular extraction (total): with rat serum fu
[4] = ref Hansch et al. [123], Avdeef [46] or other sources, cited from earlier work; for Log Poct: octanol partition coefficient
[5] = Neutral fraction at pH 7.4 calculated from pKa; type: physicochemical; settings: neutral fraction at perfusion fluid pH 7.40, calculated from pKa
[6] = rat in vivo measurements; cited from earlier work; remark: listed apart in the source
[7] = rat, in vivo
[8] = rat
[9] = intrinsic PS of neutral solute, PoS = PcS/fn, flow 0.1–[…]

Compound	Log Pc [1]	Log Po [1]	Log PoS [1]	Pc [1] [×10⁻⁶ cm/s]	Po [1] [×10⁻⁶ cm/s]	PoS ([1]; brain vascular intrinsic PoS) [mL/s/g]	PcS ([1]; flow 0.1–[…]) [mL/s/g]	PoS [1, 9] [mL/s/g]	fu,.p [2]	Brain Kin [3] [mL/s/g]	Extraction (unbound) [3] [%]	Brain vascular extraction (total) [3] [%]	Log Poct [4]	Log Doct pH=7.4 [4]	fn (%) [5] [%]	Brain Vu,br [6] [mL/g]	half-life ([8]; brain) [min]	other results
CC(O)CO (stereo not shown) [1,2-Propanediol]	−4.67	−4.67	−2.67	21.6	21.6	0.00216	0.0022	0.00216	1.00	0.0112	8.6	8.6	−1.04	−1.04	100	1.04		
OCCCO [1,3 Propanediol]	−4.29	−4.29	−2.29			0.00516	0.0052	0.00516	1.00				−0.92	−0.92	100	1.02		Pc [7]: 51.6 ×10⁻⁶ cm/s; Po [7]: 5.16e-05 cm/s
OCCCCCCO [1,6-Hexanediol]									0.9	0.0182	96.3	75.9	0.83	0.83	100	1.27	0.72	Log Pc ([7]; pH 7.4): −3.42; Log PoS ([7]; pH 7.4): −1.42; Pc ([7]; pH 7.4): 379 ×10⁻⁶ cm/s; PcS ([7]; pH 7.4): 0.038 mL/s/g; PoS ([7]; pH 7.4): 0.0379 mL/s/g; Log Po ([7]; pH 7.4): −3.42; Po ([7]; pH 7.4): 0.000379 cm/s
Cc1c(N(C)C)c(=O)n(-c2ccccc2)n1C [Aminopyrine]									0.80	0.0201	89.8	83.9			99.0	1.67	0.76	
Cn1c(=O)c2c(ncn2C)n(C)c1=O [Caffeine]										0.0152	64.7	63.2			100	1.28	0.94	
O=C(O)CCCc1ccc(N(CCCl)CCCl)cc1 [Chlorambucil]									0.01				3.41	0.61	0.16			Brain Equilibration t1/2, Measured ([7]; pH 7.4): 0.75 min; Log Pc ([7]; pH 7.4): −3.54; Log PoS ([7]; pH 7.4): 1.26; Pc ([7]; pH 7.4): 287 ×10⁻⁶ cm/s; PcS ([7]; pH 7.4): 0.029 mL/s/g; PoS ([7]; pH 7.4): 18.14 mL/s/g; Log Po ([7]; pH 7.4): −0.74; Po ([7]; pH 7.4): 0.18 cm/s; half-life [8]: 1.23 min; half-life ([8]; plasma): 1.2 min
CNCCC(Oc1ccc(C(F)(F)F)cc1)c1ccccc1 (stereo not shown) [Fluoxetine]									0.028	0.0105	100	21.3	4.50		0.27	250	15.8	
CC(C)Cc1ccc(C(C)C(=O)O)cc1 (stereo not shown) [Ibuprofen]									0.016						0.11	3.38		
NC(=O)CI [Iodoacetamide]	−4.04	−4.04	−2.04	91.7	91.7	0.00917	0.0092	0.00917	0.92				−0.19	−0.19	100	1.11		
CC(C)NC(C)Cc1ccc(I)cc1 (stereo not shown) [Iofetamine, isopropyl-iodoamphetamine]	−2.54	−1.02	0.98	2910	94900	9.49	0.29	9.49	0.25				3.26	1.75	3.07			BBB PcS ([1]; protein-free saline, differing/elevated flow rates, best fit): 0.238 mL/s/g; Maximal flow—90% extraction, PcS/2.3 ([3]; pH 7.4): 0.13 mL/s/g; Peak flow rate for 90% E ([3]; pH 7.4): 7.6 mL/min/g; half-life [8]: 3.16 min
O=C[C@@H](O)[C@H](O)[C@@H](O)[C@@H](O)CO [L-Glucose]	−6.90	−6.90	−4.90				1.25e-05	1.25e-05	1.00				−3.18	−3.18	100	0.13		Pc [7]: 0.125 ×10⁻⁶ cm/s; Po [7]: 1.25e-07 cm/s
O=C1Nc2ccc(Cl)cc2C(c2ccccc2Cl)=NC1O (stereo not shown) [Lorazepam]	−2.52	−2.52	−0.52	3000	3000		0.30	0.30	0.16						100	15.87		Maximal flow—90% extraction, PcS/2.3 ([3]; pH 7.4): 0.13 mL/s/g; half-life [8]: 1.39 min
CO [Methanol]	−3.56	−3.56	−1.56	278	278	0.0278	0.028	0.0278	1.00				−0.52	−0.52	100	1.06		
CNC(N)=O [Methylurea]	−5.72	−5.72	−3.72	1.91	1.91	0.000191	0.00019	0.000191	1.00	0.000563	0.79	0.79	−1.40	−1.40	100	1.04		
CCCCNS(=O)(=O)c1ccccc1 [N-butyl-benzene sulfonamide]	−2.42	−2.42	−0.42	3800	3800	0.38	0.38	0.38	0.30				2.20	2.20	100	10		Maximal flow—90% extraction, PcS/2.3 ([3]; pH 7.4): 0.17 mL/s/g
CCC1(c2ccccc2)C(=O)NC(=O)NC1=O [Phenobarbital]									0.25				1.53	1.51	47.7			Log Pc ([7]; pH 7.4): −4.19; Log PoS ([7]; pH 7.4): −1.86; Pc ([7]; pH 7.4): 65.1 ×10⁻⁶ cm/s; PcS ([7]; pH 7.4): 0.0065 mL/s/g; PoS ([7]; pH 7.4): 0.0136 mL/s/g; Log Po ([7]; pH 7.4): −3.86; Po ([7]; pH 7.4): 0.000136 cm/s; half-life [8]: 7.39 min
CC(=O)[C@H]1CC[C@H]2[C@@H]3CCC4=CC(=O)CC[C@]4(C)[C@H]3CC[C@]12C [Progesterone]									0.03				3.48	3.48	100	28.6	0.42	
CC(C)NCC(O)COc1cccc2ccccc12 (stereo not shown) [Propranolol]									0.09	0.00806	98.3	30.5			0.74	27.8	3.93	
OC[C@H]1O[C@@](CO)(O[C@H]2O[C@H](CO)[C@@H](O)[C@H](O)[C@H]2O)[C@@H](O)[C@@H]1O [Sucrose]									1.00		2.00E-04	2.00E-04	−3.57	−3.57	100	0.05	120	
CC(=O)CC(c1ccccc1)c1c(O)c2ccccc2oc1=O (stereo not shown) [Warfarin]									8.0E−03						0.01	3.03		Log Pc ([7]; pH 7.4): −4.15; Log PoS ([7]; pH 7.4): 1.71; Pc ([7]; pH 7.4): 70.6 ×10⁻⁶ cm/s; PcS ([7]; pH 7.4): 0.0071 mL/s/g; PoS ([7]; pH 7.4): 51.2 mL/s/g; Log Po ([7]; pH 7.4): −0.29; Po ([7]; pH 7.4): 0.51 cm/s
Inulin	−8.12	−8.12	−6.12	0.0075	0.0075	7.5e-07	7.5e-07	7.5e-07	1.00				−4.36	−4.13	89.0	0.02		

Source: PMC11650849, “Brain endothelial permeability, transport, and flow assessed over 10 orders of magnitude using the in situ brain perfusion technique” (Fluids and Barriers of the CNS, 2024)
